Test results from patent publication US11260036B2, “[18F]-labelled lactate derivative as PET radiotracer” (GRANDIS, priority 2016, dated 2022).

What was measured:
MCT1 = target: T1, MCT1 (Homo sapiens, UniProt P53985); test: In vivo inhibition of tracer uptake by MCT1 inhibitors, SQD9 tumor-bearing mice (PET/CT); details: 5 mg/Kg IV 10 min before tracer, images 30 min after tracer; SQD9 tumors, liver
T1 construct: the experiment was repeated using SQD9 human laryngeal squamous cell carcinoma cells in mice; endogenous in cells; host or cells: SQD9 xenograft tumours in NMRI nude mice
T1 sequence (P53985 1-500): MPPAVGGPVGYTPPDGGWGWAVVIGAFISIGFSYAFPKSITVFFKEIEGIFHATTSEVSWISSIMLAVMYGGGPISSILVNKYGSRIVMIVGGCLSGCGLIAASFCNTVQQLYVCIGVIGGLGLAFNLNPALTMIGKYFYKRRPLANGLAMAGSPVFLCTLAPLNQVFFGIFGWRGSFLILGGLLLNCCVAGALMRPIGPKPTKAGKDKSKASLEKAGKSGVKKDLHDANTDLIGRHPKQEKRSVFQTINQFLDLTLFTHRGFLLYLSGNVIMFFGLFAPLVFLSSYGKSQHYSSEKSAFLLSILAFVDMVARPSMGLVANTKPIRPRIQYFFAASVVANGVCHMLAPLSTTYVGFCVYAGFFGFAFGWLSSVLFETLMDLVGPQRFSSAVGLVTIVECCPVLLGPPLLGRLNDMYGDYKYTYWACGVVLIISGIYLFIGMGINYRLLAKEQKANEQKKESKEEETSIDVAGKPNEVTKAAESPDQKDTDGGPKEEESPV
T1 sequence (P35613 140-385 partner limits assumed): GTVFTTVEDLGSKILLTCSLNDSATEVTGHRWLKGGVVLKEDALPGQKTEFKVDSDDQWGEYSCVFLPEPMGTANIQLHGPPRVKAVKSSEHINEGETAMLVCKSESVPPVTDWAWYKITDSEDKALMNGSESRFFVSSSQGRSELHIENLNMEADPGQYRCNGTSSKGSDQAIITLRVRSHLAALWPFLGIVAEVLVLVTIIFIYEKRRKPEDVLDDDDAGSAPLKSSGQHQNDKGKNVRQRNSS
Experimental: In vivo tracer uptake assay. […] In another model, 1,000,000 SQD9 cells in a HBSS:Matrigel 1:1 solution were injected on the back of same 6.5 week-old male NMRI nude mice. Experiments were performed on tumors of ˜10 mm in diameter, i.e., about 3 weeks tumor cell inoculation. […] 2D Regions of interest (ROIs) were manually delineated on PET images using the PMOD software version 3.5 (PMOD technologies Ltd). Tumor localization was determined on PET/CT fused images. Ribcage and skin were used as internal and external limits, respectively. Tracer uptake is expressed as standard uptake value (SUV) calculated on the mean value of voxels within the manually defined 3D volume of interest (VOI).

rabbit muscle LDH = target: T2, rabbit muscle LDH (Oryctolagus cuniculus, UniProt P13491); test: Lactate dehydrogenase assay (reduction of 3-fluoropyruvate); type: biochemical; details: 10 IU rabbit muscle LDH, NADH 0.2 mM, 37° C., 24 h, HPLC-MS detection
T2 construct: 10 IU of rabbit muscle LDH (Sigma); purchased Sigma; host or cells: rabbit muscle
Experimental: A potential reduction of 3-fluoropyruvate to 3-fluoro-2-hydroxypropionate by lactate dehydrogenase (LDH) was measured in vitro using a previously reported protocol (Goncalves et al., Tetrahedron: Asymmetry, 1996, 7, 1237-1240).
Briefly, 14.6 mg of nonradioactive 3-fluorpyruvate were dissolved in 4 mL of double distilled water containing 10 IU of rabbit muscle LDH (Sigma) and 5.3 IU of formate dehydrogenase (Sigma). The reaction was started by adding NADH to a final concentration of 0.2 mM and sodium formate to a final concentration of 40 mM. The final volume was adjusted to 5 mL with double distilled water. The reaction was carried out at 37° C. for 24 h under constant, gentle shaking at 120 rpm. Then, solution was spun through a 10 kDa filter to remove enzymes, and 3-fluoro-2-hydroxypropionate was detected by HPLC-MS using an Accela U(HPLC) equipped with a Luna Phenomenex 250*4.60 HPLC column and an ThermoScientific LTQ—ORBITRAP—XL fitted an electrospray ionization source working in negative mode.

SiHa cells = test: In vitro tracer uptake assay, SiHa; type: cell-based, human; details: 6 min after delivery of 45 μCi/ml of the tracer
Description: (§1) Cells and gene silencing. HeLa and SiHa human cervix squamous cell carcinoma and SDQ9 human laryngeal squamous cell carcinoma were from ATCC. Cells were routinely cultured in DMEM (Thermo Fischer) containing glucose (4.5 g/L), Glutamax and 10% FBS. MCT1-deficient and control SiHa cells were produced as previously described (De Saedeleer et al., Oncogene, 2014, 33, 4060-4068), using the following vectors from Open Biosystems: TRCN0000038340 (shMCT1-1) and TRCN0000038339 (shMCT1-2). Control shRNA (shCTR) was Addgene plasmid 1864.
(§2) In vitro tracer uptake assay. A modified version of the ^14C-Lactate uptake assay described by Draoui et al., (Draoui et al., Bioorg Med Chem, 2013, 21, 7107-7117) was used. Briefly, 250,000 cells were plated in flat-bottom 24 well plates (t=0). When cells were attached (t=6 h), medium was replaced by DMEM without glucose and glutamine, containing 10% dialyzed FBS and 10 mM of L-lactate, pH 7.0. Cells were then incubated overnight at 37° C., 5% CO2. On the day of experiment, (t=24 h), cells medium was removed and cells were briefly washed twice with a modified KREBS solution without glucose (HEPES 25 mM, NaCl 120 mM, KCl 4.8 mM, KH2PO4 1.2 mM, MgSO4 1.2 mM, CaCl2 2 mM). […] Cells were lysed with NaOH 0.1 N, and ^18F activity was measured in the cell lysate using a Wiper Gold γ-counter (Laboratory Technologies). Activity is expressed as % of initial dose. […]

HeLa cells = test: In vitro tracer uptake assay, HeLa; type: cell-based, human; details: 6 min after delivery of 45 μCi/ml of the tracer
Description: as §1, §2

SQD9 cells = test: In vitro tracer uptake assay, SQD9; type: cell-based, human; details: SQD9, 6 min after delivery of 45 μCi/ml of the tracer
Description: as §1, §2

SiHa tumors = test: In vivo tracer uptake assay (PET/CT), mice bearing SiHa-shCTR and SiHa-shMCT1 tumors
Experimental: In vivo tracer uptake assay. All in vivo experiments were performed with approval of UCL Comité d'Ethique pour l'Expérimentation Animale (approval ID 2014/UCL/MD/014) according to national and European animal care regulations. To avoid inter-subject variability, 500,000 SiHa-shCTR and SiHa-shMCT1 cells in a HBSS:Matrigel 1:1 solution were respectively injected in the left and right flank of same 6.5 week-old male NMRI nude mice. In another model, 1,000,000 SQD9 cells in a HBSS:Matrigel 1:1 solution were injected on the back of same 6.5 week-old male NMRI nude mice. Experiments were performed on tumors of ˜10 mm in diameter, i.e., about 3 weeks tumor cell inoculation. For intravenous injection, MCT1 inhibitor AR-C155858 (Tocris) was dissolved in 0.9% NaCl with 10% (2-hydroxypropyl)-β-cyclodextrin at a concentration of 2.5 mg/ml (Vijay et al., Pharm Res, 2015, 32, 1894-1906). For intravenous injection, MCT1 inhibitor AZD3965 (Selleckchem) was first dissolved in pure ethanol at a concentration of 100 mg/ml, then diluted in 0.9% NaCl with 10% (2-hydroxypropyl)-β-cyclodextrin at a final concentration of 2.5 mg/ml. (±)-[^18F]-3-fluoro-2-hydroxypropionate (150-250 μCO was injected in the tail vein of the animals 10 min after the delivery of AR-C155858 (5 mg/Kg), AZD3965 (5 mg/Kg), or vehicle (70 μL). At indicated times, a whole body 10-min static PET imaging (small-animal Mosaic PET Scan system, Philips Medical Systems) directly followed by a 10 min transmission CT scan (NanoSPECT/CT Small Animal Imager, Bioscan; source: 370 MBq ^137Cs; X-Ray tube voltage: 55 kVp; number of projections: 180; exposure time 1000 ms) were performed on isoflurane-anesthetized mice kept at 35° C. PET images were corrected for attenuation and reconstructed using fully 3D iterative algorithm 3D-RAMLA in a 128×128×120 matrix, with a voxel size of 1 mm^3. CT images were reconstructed with a voxel size of 0.221×0.221×0.221 mm^3. 2D Regions of interest (ROIs) were manually delineated on PET images using the PMOD software version 3.5 (PMOD technologies Ltd). Tumor localization was determined on PET/CT fused images. Ribcage and skin were used as internal and external limits, respectively. Tracer uptake is expressed as standard uptake value (SUV) calculated on the mean value of voxels within the manually defined 3D volume of interest (VOI).

SQD9 tumors = test: In vivo tracer uptake assay (PET/CT), mice bearing SQD9 tumors; details: IV 250 μCi, PET-CT
Experimental: In vivo tracer uptake assay. All in vivo experiments were performed with approval of UCL Comité d'Ethique pour l'Expérimentation Animale (approval ID 2014/UCL/MD/014) according to national and European animal care regulations. To avoid inter-subject variability, 500,000 SiHa-shCTR and SiHa-shMCT1 cells in a HBSS:Matrigel 1:1 solution were respectively injected in the left and right flank of same 6.5 week-old male NMRI nude mice. In another model, 1,000,000 SQD9 cells in a HBSS:Matrigel 1:1 solution were injected on the back of same 6.5 week-old male NMRI nude mice. Experiments were performed on tumors of ˜10 mm in diameter, i.e., about 3 weeks tumor cell inoculation. For intravenous injection, MCT1 inhibitor AR-C155858 (Tocris) was dissolved in 0.9% NaCl with 10% (2-hydroxypropyl)-β-cyclodextrin at a concentration of 2.5 mg/ml (Vijay et al., Pharm Res, 2015, 32, 1894-1906). For intravenous injection, MCT1 inhibitor AZD3965 (Selleckchem) was first dissolved in pure ethanol at a concentration of 100 mg/ml, then diluted in 0.9% NaCl with 10% (2-hydroxypropyl)-β-cyclodextrin at a final concentration of 2.5 mg/ml. […] Tumor localization was determined on PET/CT fused images. […] Tracer uptake is expressed as standard uptake value (SUV) calculated on the mean value of voxels within the manually defined 3D volume of interest (VOI).

For Cc1[nH]nc(C(F)(F)F)c1Cc1sc2c(c1C(=O)N1C[C@](C)(O)CO1)c(=O)n(C)c(=O)n2C(C)C [AZD3965], the “change in tracer uptake (SUV) after MCT1 inhibitor” value (MCT1) was “highly significant decrease in tracer uptake in the tumors and liver”.
In the case of 3-fluoropyruvate, the “reduction of 3-fluoropyruvate to 3-fluoro-2-hydroxypropionate by LDH” value (rabbit muscle LDH) is reported as “can be reduced to 3-fluoralacate by lactate dehydrogenase (LDH)”.
O=C(O)C(O)C[18F] (racemic) [(±)-[^18F]-3-fluoro-2-hydroxypropionate, [^18F]-3-fluoro-2-hydroxypropionic acid] was tested, and the “intracellular 18F dose” value (SiHa cells) was ~0.1 % of the initial dose, the “intracellular 18F dose” value (HeLa cells) was ~0.1 % of the initial dose and the “intracellular 18F dose” value (SQD9 cells) was ~0.3 % of the initial dose. For the same molecule, the “bone labeling indicating defluorination” value (SiHa tumors; 30 min after tracer injection) was “no detectable bone labeling”, the “discrimination of SiHa-shCTR and SiHa-shMCT1 tumors by the tracer” value (SiHa tumors; 30 min after tracer injection) was “no apparent discrimination of SiHa-shCTR and SiHa-shMCT1” and the “bone labeling indicating defluorination” value (SiHa tumors; 60 min after tracer injection) was “spinal and joint labeling was detected, indicating that some defluorination had occurred”. The “time of best tumor contrast after tracer injection” value (SiHa tumors; IV 150-250 μCi, PET/CT) was 30 min, the “labeling of other organs (tracer distribution)” value (SiHa tumors; IV 150-250 μCi, PET/CT, 30 min after tracer injection) was “the gut and the liver, were also labeled” and the “route of tracer clearance” value (SiHa tumors; bladder labeling before and after systemic MCT1 inhibition) was “urine is the preferred route”. The “tracer uptake by SQD9 tumors” value (SQD9 tumors) was “the tumors captured and accumulated the tracer”.
